What was measured:
[1] = target: Serine/threonine-protein kinase 25 (Homo sapiens) (UniProt O00506); assay: Inhibition of YSK1 ATP labeling site in human Huh-7 cells at 10 uM by KiNativ Profiling analysis relative to control; type: cell-based
[2] = target: Serine/threonine-protein kinase 10 (Homo sapiens) (UniProt O94804); assay: Inhibition of LOK Lys1 labeling site harbouring NKETGALAAAKVIETK in human A-375 cells at 5 uM by KiNativ Profiling analysis relative to control; type: cell-based
[3] = target: T1, Mitogen-activated protein kinase kinase kinase kinase 2 (Homo sapiens) (UniProt Q12851); assay: Inhibition of MAP4K2 (GCK) Lys2 labeling site in human A-375 cells at 0.05 uM by KiNativ Profiling analysis relative to control; type: cell-based
T1 sequence (whole entry): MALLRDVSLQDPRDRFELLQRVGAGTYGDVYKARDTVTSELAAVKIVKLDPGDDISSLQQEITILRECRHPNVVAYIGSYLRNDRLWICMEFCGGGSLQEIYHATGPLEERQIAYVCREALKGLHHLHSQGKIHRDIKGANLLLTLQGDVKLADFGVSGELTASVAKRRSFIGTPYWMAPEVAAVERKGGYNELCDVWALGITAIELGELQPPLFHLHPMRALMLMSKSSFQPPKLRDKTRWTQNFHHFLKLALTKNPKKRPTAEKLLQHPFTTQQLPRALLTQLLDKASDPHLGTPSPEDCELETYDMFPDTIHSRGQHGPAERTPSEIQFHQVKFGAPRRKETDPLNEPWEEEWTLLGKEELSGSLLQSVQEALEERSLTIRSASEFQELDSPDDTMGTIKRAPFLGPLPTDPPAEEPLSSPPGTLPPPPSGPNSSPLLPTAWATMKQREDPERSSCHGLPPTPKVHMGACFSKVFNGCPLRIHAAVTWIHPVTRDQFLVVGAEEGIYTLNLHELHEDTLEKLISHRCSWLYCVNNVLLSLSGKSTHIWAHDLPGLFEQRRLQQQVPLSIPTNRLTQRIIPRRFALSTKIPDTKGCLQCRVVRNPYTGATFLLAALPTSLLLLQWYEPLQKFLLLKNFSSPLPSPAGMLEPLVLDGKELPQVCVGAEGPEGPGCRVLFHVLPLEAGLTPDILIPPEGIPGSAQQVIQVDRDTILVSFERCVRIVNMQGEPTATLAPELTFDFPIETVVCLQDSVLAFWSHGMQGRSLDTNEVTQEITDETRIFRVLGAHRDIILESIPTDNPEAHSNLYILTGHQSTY

[4] = target: Interferon-induced, double-stranded RNA-activated protein kinase (Homo sapiens) (UniProt P19525); assay: Inhibition of PKR ACT labeling site in human Huh-7 cells at 1 uM by KiNativ Profiling analysis relative to control; type: cell-based
[5] = target: Ribosomal protein S6 kinase alpha-4 (Homo sapiens) (UniProt O75676); assay: Inhibition of C-terminal RPS6KA4 kinase domain 2 (unknown origin) at 1 uM by Ambit Kinomescan binding assay relative to control
[6] = system: Epidermal growth factor receptor (Homo sapiens), P00533 [G719C]; assay: Inhibition of EGFR G719C mutant (unknown origin) at 1 uM by Ambit Kinomescan binding assay relative to control
[7] = target: T2, Inhibitor of nuclear factor kappa-B kinase subunit alpha (Homo sapiens) (UniProt O15111); assay: Inhibition of IKK-alpha (unknown origin) at 1 uM by Ambit Kinomescan binding assay relative to control; values are per cent of control
T2 sequence (whole entry): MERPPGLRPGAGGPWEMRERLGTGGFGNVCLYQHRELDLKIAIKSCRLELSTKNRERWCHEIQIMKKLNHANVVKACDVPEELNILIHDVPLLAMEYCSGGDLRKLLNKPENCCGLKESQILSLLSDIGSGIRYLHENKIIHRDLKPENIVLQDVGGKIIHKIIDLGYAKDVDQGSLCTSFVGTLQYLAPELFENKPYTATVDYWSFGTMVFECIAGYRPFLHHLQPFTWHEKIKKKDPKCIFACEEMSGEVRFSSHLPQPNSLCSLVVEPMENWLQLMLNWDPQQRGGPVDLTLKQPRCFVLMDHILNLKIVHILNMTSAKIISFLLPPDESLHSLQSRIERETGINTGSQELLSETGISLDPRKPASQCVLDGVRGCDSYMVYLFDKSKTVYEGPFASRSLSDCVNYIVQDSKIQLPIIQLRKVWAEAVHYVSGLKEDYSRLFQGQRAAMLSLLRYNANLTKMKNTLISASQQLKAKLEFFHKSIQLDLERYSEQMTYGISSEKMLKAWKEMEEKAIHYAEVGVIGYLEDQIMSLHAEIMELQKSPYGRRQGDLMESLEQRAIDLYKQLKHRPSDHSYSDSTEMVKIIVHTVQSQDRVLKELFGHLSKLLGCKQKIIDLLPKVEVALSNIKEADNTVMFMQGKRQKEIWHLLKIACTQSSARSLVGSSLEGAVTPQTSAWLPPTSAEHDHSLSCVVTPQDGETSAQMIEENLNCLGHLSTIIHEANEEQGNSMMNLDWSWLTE

[8] = system: Proto-oncogene tyrosine-protein kinase receptor Ret (Homo sapiens), P07949 [M918T]; assay: Inhibition of RET M918T mutant (unknown origin) at 1 uM by Ambit Kinomescan binding assay relative to control; values are per cent of control
[9] = target: Serine/threonine-protein kinase Nek4 (Homo sapiens) (UniProt P51957); assay: Inhibition of NEK4 (unknown origin) at 1 uM by Ambit Kinomescan binding assay relative to control; values are per cent of control
[10] = target: Tyrosine-protein kinase Yes (Homo sapiens) (UniProt P07947); assay: Inhibition of YES (unknown origin) at 1 uM by Ambit Kinomescan binding assay relative to control; values are per cent of control
[11] = target: Serine/threonine-protein kinase 38-like (Homo sapiens) (UniProt Q9Y2H1); assay: Inhibition of NDR2 Lys1 labeling site harbouring KDTGHIYAMKILR in human A-375 cells at 0.05 uM by KiNativ Profiling analysis relative to control; type: cell-based
[12] = target: Discoidin domain-containing receptor 2 (Homo sapiens) (UniProt Q16832); assay: Inhibition of DDR2 (unknown origin) at 1 uM by Ambit Kinomescan binding assay relative to control; values are per cent of control
[13] = target: Mitogen-activated protein kinase 9 (Homo sapiens, UniProt P45984); assay: Inhibition of JNK2 Lys2 labeling site in human Huh-7 cells at 1 uM by KiNativ Profiling analysis relative to control; type: cell-based
[14] = target: Microtubule-associated serine/threonine-protein kinase 4 (Homo sapiens) (UniProt O15021); assay: Inhibition of MAST4 Lys2 labeling site in human Huh-7 cells at 1 uM by KiNativ Profiling analysis relative to control; type: cell-based
[15] = target: Glycogen synthase kinase-3 alpha (Homo sapiens) (UniProt P49840); assay: Inhibition of GSK3A Lys2 labeling site in human Huh-7 cell lysate at 1 uM by KiNativ Profiling analysis relative to control; type: subcellular

Sequence of Serine/threonine-protein kinase 25 (Homo sapiens) (O00506 whole entry, looked up): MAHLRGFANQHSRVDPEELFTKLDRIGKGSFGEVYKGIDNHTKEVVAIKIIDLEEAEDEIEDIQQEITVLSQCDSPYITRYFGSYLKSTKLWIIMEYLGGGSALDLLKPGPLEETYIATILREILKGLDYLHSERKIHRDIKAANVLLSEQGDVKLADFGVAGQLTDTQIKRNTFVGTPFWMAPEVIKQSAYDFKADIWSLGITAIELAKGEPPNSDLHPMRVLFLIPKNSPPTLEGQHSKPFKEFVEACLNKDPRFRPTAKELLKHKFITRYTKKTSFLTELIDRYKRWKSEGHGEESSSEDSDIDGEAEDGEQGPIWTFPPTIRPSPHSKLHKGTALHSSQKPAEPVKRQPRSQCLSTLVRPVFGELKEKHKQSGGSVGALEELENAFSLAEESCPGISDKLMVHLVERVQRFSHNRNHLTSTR
Sequence of Mitogen-activated protein kinase 9 (P45984 whole entry, looked up): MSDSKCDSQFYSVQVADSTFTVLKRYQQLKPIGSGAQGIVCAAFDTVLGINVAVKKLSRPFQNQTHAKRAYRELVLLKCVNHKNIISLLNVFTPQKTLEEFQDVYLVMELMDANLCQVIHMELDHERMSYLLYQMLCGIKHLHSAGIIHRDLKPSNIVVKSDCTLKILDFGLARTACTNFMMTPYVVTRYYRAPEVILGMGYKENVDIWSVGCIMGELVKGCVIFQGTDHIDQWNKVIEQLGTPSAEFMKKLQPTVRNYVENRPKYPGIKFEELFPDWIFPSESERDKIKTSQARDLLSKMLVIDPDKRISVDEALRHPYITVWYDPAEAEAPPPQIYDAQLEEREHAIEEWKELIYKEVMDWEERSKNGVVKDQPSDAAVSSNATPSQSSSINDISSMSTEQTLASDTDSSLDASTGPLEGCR
Sequence of Serine/threonine-protein kinase 38-like (Homo sapiens) (Q9Y2H1 2-464 limits assumed): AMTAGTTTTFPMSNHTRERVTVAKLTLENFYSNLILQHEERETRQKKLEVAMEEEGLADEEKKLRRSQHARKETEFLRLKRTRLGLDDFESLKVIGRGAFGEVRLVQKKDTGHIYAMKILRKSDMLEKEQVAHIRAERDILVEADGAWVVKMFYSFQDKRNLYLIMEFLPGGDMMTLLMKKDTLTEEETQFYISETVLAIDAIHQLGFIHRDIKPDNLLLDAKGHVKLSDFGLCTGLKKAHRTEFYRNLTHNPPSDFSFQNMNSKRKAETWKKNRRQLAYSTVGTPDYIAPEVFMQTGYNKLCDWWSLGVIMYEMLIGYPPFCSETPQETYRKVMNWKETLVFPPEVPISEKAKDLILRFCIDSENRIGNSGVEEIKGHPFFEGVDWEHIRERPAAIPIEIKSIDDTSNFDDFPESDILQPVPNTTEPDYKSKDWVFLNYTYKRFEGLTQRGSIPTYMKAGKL
Sequence of Epidermal growth factor receptor (Homo sapiens), P00533 [G719C] (P00533 whole entry G719C): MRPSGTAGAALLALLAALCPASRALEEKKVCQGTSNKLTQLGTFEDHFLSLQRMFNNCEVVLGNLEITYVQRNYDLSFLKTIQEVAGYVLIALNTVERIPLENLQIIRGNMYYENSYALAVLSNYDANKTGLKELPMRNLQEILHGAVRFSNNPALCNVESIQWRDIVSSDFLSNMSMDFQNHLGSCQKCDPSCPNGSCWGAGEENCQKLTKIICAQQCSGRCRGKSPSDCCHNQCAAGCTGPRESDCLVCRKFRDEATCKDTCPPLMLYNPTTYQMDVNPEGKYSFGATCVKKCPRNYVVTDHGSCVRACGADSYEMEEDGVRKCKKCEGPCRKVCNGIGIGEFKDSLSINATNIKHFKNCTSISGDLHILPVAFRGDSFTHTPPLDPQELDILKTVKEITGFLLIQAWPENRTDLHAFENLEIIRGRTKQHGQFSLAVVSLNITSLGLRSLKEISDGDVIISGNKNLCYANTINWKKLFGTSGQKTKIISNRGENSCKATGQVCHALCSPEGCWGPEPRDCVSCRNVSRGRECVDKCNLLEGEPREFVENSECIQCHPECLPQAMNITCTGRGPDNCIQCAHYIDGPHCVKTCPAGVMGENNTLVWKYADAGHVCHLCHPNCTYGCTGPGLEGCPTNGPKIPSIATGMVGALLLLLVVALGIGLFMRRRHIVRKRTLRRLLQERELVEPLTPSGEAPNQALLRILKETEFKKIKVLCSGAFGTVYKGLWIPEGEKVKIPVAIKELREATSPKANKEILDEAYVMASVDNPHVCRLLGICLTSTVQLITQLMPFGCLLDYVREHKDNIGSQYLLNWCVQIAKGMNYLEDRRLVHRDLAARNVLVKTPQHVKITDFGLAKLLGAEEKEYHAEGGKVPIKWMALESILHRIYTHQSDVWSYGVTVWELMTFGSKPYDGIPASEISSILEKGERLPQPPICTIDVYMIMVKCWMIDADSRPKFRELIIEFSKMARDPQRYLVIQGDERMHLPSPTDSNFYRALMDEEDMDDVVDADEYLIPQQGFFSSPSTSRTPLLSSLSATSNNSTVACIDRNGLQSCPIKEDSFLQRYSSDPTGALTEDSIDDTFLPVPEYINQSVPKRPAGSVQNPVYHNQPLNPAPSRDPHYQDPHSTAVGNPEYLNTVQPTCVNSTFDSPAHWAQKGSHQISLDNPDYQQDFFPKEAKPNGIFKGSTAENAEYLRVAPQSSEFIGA
Sequence of Serine/threonine-protein kinase 10 (Homo sapiens) (O94804 whole entry, looked up): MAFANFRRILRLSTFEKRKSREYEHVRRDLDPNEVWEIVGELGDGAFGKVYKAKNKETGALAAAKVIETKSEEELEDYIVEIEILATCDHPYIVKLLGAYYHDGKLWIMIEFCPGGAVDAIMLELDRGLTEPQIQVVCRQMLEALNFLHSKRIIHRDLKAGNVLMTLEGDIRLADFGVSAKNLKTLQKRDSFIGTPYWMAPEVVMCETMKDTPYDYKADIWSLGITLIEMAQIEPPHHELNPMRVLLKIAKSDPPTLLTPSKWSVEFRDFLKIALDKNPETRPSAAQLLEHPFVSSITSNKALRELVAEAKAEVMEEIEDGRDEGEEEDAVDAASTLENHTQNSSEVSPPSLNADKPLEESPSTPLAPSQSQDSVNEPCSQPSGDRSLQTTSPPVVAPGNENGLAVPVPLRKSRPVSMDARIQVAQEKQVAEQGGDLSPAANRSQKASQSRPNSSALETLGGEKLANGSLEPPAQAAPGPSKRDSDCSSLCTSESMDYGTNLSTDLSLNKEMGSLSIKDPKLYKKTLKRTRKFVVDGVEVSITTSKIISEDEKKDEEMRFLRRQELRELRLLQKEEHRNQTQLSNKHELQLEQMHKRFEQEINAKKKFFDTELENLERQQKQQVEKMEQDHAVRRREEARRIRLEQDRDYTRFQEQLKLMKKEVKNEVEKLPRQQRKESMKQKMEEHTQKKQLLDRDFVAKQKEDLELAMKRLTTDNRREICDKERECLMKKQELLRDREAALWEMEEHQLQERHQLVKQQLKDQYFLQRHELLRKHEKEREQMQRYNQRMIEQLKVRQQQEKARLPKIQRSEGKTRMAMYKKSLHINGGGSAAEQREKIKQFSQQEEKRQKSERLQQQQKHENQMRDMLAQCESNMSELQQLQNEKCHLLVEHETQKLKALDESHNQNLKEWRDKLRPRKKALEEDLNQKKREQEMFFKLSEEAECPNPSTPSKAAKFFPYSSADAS
Sequence of Interferon-induced, double-stranded RNA-activated protein kinase (Homo sapiens) (P19525 whole entry, the tested form may be a part): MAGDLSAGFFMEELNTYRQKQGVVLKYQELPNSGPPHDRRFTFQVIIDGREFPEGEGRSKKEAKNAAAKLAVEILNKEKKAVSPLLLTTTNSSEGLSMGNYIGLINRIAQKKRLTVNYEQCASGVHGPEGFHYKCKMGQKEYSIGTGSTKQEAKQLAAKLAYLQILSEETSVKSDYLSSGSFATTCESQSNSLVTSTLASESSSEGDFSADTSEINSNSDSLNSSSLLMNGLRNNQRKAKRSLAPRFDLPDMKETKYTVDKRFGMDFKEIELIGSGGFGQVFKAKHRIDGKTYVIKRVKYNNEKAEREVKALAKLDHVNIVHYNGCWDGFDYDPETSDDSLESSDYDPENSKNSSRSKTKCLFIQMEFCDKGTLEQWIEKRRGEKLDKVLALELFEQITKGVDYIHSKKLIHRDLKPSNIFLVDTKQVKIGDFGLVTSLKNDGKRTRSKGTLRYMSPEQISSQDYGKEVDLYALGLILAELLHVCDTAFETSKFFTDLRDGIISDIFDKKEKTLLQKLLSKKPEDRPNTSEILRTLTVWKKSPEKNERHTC
Sequence of Ribosomal protein S6 kinase alpha-4 (Homo sapiens) (O75676 whole entry, looked up, the tested form may be a part): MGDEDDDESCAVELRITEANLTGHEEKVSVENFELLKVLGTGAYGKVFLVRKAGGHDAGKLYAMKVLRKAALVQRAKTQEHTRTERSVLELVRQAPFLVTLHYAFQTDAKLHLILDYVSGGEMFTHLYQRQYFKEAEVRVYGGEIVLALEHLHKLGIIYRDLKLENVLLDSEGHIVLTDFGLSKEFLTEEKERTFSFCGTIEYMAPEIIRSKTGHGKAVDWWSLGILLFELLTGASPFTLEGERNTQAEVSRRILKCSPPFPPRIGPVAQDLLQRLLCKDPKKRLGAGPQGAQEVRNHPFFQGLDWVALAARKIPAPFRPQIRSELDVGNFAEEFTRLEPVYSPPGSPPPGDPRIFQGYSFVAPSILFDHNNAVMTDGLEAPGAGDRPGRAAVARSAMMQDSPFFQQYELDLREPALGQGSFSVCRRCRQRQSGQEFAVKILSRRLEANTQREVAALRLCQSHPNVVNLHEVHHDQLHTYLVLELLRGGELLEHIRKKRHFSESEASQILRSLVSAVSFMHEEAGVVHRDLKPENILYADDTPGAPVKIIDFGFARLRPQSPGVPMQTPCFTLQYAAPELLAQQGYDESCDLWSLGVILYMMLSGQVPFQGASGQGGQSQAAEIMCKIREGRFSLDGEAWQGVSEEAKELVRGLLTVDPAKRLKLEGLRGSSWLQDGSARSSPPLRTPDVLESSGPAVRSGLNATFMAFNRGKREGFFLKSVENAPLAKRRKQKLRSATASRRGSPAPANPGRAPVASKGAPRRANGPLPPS

Q: What does the source list for CCN1CCN(Cc2ccc(NC(=O)c3ccc(C)c(Oc4ccnc5[nH]ccc45)c3)cc2C(F)(F)F)CC1?
A: inhibition [1]: 25.3%; inhibition [2]: 85.6%; inhibition [3]: 95.1%; inhibition [4]: 48.5%

Q: Which results are given for CCN1CCN(Cc2ccc(NC(=O)c3ccc(C)c(/C=C/c4cnc5[nH]ccc5c4OC)c3)cc2C(F)(F)F)CC1?
A: inhibition [5]: 73%; inhibition [6]: 0.45%; residual activity [7]: 2%; % of control [8]: 0.05%; residual activity [9]: 100%; percent of control [10]: 2.2%; inhibition [11]: 6%; residual activity [12]: 0.2%

Q: CNc1cc(Oc2cc(C(=O)Nc3cc(N4CCN(C)CC4)cc(C(F)(F)F)c3)ccc2C)ncn1 was tested. Which inhibition [13] did it give?
A: 14.5%

Q: And the inhibition [14]?
A: 30.2%

Q: What about the inhibition [15] of the same compound?
A: -5.8%

— ChEMBL document CHEMBL5696442, “Discovery of type II inhibitors of TGFβ-activated kinase 1 (TAK1) and mitogen-activated protein kinase kinase kinase kinase 2 (MAP4K2)” (J Med Chem, 2015)
